# Measurements as given in ChEMBL document CHEMBL3727350, “Agents and methods for treating ischemic and other diseases” (2014).
# Active and inactive are the calls of the source. The rule behind the calls is not given here.
# Legend:
# [1] = biological target: Transient receptor potential cation channel subfamily M member 7 (Mus musculus) (UniProt Q923J1); assay: Inhibition of TRPM7 in mouse primary neuronal cells exposed to oxygen glucose deprivation condition for 1 to 3 hrs assessed as reduction in TRPM7-mediated anoxic cell death dosed before oxygen glucose deprivation condition by propidium iodide uptake assay; conditions: Primary neuron
# Chain of Transient receptor potential cation channel subfamily M member 7 (Mus musculus) (Q923J1 whole entry): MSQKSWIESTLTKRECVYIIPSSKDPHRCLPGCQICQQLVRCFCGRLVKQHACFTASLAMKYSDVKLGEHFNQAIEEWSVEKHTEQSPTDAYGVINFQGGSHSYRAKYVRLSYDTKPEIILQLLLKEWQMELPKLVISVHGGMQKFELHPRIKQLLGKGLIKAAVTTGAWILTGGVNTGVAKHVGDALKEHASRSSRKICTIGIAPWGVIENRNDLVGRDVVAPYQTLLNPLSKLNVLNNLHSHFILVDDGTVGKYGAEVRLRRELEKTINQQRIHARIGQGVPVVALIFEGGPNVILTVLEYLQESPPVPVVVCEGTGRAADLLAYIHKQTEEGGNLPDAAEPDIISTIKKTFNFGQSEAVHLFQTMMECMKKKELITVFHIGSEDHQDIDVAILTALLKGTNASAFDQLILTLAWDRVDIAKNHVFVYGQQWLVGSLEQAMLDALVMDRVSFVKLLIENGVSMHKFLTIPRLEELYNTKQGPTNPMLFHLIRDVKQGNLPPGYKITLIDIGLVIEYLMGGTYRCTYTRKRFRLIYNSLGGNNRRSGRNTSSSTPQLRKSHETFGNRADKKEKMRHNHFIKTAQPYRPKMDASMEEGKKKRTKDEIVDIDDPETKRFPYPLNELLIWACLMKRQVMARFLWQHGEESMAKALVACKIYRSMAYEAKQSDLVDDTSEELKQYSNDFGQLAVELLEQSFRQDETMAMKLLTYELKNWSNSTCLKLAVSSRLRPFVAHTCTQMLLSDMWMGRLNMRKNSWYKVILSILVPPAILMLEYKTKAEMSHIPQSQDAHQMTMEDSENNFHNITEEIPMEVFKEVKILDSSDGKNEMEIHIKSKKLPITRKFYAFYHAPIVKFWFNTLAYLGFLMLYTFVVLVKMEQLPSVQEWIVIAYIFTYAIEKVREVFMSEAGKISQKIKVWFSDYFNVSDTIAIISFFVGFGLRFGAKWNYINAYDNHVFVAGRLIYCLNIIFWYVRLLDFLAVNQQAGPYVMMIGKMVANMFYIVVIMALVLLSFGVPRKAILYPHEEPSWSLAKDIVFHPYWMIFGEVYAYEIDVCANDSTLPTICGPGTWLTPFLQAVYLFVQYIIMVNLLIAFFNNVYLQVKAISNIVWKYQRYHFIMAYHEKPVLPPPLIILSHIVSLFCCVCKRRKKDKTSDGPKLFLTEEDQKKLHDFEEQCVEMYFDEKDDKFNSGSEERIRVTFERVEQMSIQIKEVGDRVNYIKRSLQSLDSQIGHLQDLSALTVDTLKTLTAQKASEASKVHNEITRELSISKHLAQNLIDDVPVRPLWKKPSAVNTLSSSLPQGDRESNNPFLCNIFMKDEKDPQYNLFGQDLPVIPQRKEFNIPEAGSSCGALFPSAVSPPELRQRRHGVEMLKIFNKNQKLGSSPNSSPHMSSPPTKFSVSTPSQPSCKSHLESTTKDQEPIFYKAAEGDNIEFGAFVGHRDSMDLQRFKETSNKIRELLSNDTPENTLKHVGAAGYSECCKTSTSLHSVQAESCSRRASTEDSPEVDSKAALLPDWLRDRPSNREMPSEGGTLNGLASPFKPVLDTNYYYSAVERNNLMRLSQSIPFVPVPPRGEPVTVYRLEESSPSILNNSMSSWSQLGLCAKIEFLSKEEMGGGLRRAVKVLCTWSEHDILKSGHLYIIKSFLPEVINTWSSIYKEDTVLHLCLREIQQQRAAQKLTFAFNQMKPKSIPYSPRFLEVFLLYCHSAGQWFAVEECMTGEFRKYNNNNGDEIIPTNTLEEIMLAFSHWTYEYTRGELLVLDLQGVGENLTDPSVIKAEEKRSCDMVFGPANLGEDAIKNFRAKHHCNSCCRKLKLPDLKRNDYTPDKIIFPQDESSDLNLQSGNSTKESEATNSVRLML
# [2] = Inhibition of cell proliferation of human WERI cells at 10 uM incubated for 48 to 96 hrs; format: functional
# [3] = biological target: Transient receptor potential cation channel subfamily M member 7 (Mus musculus) (UniProt Q923J1); assay: Inhibition of Tet-induced Flag-tagged mouse TRPM7 expressed in HEK293 cells assessed as reduction in channel currents at 0.3 to 30 uM by whole cell patch clamp assay; format: cell-based
# [4] = biological target: Transient receptor potential cation channel subfamily M member 7 (Rattus norvegicus) (UniProt Q925B3); assay: Inhibition of TRPM7 in rat H9c2 cells assessed as protection against oxygen glucose deprivation-induced cell death at 0.05 to 5 uM pre-treated for 24 hrs before OGD; format: cell-based
# Chain of Transient receptor potential cation channel subfamily M member 7 (Rattus norvegicus) (Q925B3 whole entry): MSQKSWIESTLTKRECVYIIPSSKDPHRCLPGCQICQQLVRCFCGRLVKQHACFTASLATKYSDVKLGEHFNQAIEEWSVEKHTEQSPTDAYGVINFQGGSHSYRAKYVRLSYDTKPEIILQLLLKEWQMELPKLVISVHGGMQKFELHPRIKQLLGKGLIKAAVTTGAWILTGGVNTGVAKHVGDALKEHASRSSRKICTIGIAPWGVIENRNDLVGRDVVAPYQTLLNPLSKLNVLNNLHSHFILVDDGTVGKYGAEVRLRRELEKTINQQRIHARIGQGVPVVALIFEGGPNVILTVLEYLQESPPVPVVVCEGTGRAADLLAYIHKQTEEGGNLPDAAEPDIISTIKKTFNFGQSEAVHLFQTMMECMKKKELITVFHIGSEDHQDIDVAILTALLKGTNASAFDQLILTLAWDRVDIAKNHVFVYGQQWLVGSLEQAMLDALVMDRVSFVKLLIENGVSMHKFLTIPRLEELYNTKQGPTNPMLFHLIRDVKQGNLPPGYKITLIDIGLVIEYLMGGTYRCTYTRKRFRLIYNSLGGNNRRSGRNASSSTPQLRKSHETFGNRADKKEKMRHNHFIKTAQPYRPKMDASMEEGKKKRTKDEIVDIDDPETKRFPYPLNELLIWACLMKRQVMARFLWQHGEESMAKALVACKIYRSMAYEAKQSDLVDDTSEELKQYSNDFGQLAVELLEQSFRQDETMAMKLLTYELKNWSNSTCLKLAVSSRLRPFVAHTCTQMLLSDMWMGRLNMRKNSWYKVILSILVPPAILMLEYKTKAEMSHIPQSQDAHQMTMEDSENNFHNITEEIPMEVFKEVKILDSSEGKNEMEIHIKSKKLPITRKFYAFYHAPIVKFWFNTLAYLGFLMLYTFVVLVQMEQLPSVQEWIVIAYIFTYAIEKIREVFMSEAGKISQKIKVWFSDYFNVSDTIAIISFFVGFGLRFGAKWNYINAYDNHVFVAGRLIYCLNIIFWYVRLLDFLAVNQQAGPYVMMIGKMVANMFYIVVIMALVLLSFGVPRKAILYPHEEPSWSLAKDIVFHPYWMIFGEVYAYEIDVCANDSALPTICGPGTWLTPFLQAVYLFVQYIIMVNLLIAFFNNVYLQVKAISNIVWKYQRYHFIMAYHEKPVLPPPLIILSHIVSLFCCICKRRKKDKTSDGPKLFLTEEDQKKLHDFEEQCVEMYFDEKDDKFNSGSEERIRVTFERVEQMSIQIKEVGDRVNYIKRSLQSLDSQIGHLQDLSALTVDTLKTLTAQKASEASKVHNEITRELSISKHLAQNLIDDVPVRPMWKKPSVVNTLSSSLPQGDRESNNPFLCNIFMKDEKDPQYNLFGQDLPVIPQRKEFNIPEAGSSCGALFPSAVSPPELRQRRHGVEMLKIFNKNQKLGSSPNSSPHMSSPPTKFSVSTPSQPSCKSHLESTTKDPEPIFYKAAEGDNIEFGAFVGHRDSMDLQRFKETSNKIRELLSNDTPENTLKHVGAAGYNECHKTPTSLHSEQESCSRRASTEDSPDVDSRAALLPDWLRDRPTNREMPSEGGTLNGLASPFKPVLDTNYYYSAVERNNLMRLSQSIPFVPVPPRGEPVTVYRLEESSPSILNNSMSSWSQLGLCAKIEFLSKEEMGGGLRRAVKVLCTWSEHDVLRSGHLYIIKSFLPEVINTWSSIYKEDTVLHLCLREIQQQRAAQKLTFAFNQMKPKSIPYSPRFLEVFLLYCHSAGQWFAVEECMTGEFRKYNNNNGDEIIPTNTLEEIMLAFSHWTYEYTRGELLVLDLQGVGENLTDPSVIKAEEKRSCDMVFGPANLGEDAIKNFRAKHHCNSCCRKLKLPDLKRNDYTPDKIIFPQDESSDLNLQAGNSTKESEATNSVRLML
# [5] = biological target: Transient receptor potential cation channel subfamily M member 7 (Rattus norvegicus) (UniProt Q925B3); assay: Inhibition of TRPM7 in rat H9c2 cells assessed as protection against oxygen glucose deprivation-induced cell death at 0.05 to 5 uM; format: cell-based
# [6] = biological target: Glutamate receptor ionotropic, AMPA (Mus musculus) (UniProt P23819+P23818+Q9Z2W8+Q9Z2W9); assay: Inhibition of AMPA receptor in mouse cortical neurons assessed as effect on AMPA currents; format: protein-complex assay
# [7] = biological target: Transient receptor potential cation channel subfamily M member 7 (Rattus norvegicus) (UniProt Q925B3); assay: Inhibition of TRPM7 in cultured rat retinal ganglion cells exposed to oxygen glucose deprivation condition for 3 hrs assessed as protection against TRPM7-mediated cell death at by propidium iodide uptake assay; set-up: scale not given: the % may be the effect or the level left
# [8] = biological target: Transient receptor potential cation channel subfamily M member 7 (Rattus norvegicus) (UniProt Q925B3); assay: Inhibition of TRPM7 in Sprague-Dawley rat retinal explants dissociated and subjected to 1 hr oxygen-glucose deprivation assessed as reduction in retinal cell death at 1 and 5 uM
# [9] = biological target: Protein XNDC1N (Homo sapiens) (UniProt Q6ZNB5); assay: Inhibition of TRPC2 (unknown origin) expressed in HEK293 cells assessed as effect on agonist-induced Ca2+ changes; format: functional, cell-based
# [10] = test system: Mus musculus; assay: Reduction in damage to heart in mouse model of myocardial infarction at 10 to 35 ug/kg; format: functional, organism-based
# [11] = biological target: Transient receptor potential cation channel subfamily M member 7 (Rattus norvegicus) (UniProt Q925B3); assay: Inhibition of TRPM7 in rat H9C2 cells exposed to 6 hrs oxygen glucose deprivation condition followed by 2 hrs recovery assessed as reduction in TRPM7-mediated anoxic cell death at 0.05 to 5 uM by propidium iodide uptake assay; format: cell-based
# [12] = biological target: Transient receptor potential cation channel subfamily M member 7 (Rattus norvegicus) (UniProt Q925B3); assay: Inhibition of TRPM7 in rat retinal explants exposed to oxygen glucose deprivation condition for 1 hr assessed as protection against TRPM7-mediated cell death at by propidium iodide uptake assay
# [13] = biological target: Transient receptor potential cation channel subfamily M member 7 (Rattus norvegicus) (UniProt Q925B3); assay: Inhibition of TRPM7 in rat H9c2 cells assessed as protection against oxygen glucose deprivation-induced cell death at 0.05 to 5 uM applied during OGD; format: cell-based
# [14] = biological target: Transient receptor potential cation channel subfamily M member 7 (Mus musculus) (UniProt Q923J1); assay: Inhibition of TRPM7 in mouse AML12 cells assessed as protection against oxygen glucose deprivation-induced cell death at 0.5 to 5 uM; format: cell-based
# [15] = species on record: Rattus norvegicus; assay: Reduction in retinal cell death in rat model of acute glaucoma assessed as reduction in TUNEL positive cells after exposure to 1 hr high IOP at 1 uM; format: functional, organism-based
# [16] = biological target: Transient receptor potential cation channel subfamily M member 7 (Rattus norvegicus) (UniProt Q925B3); assay: Inhibition of TRPM7 in rat H9C2 cells assessed as reduction in channel currents at 0.3 to 30 uM by whole cell patch clamp assay; format: cell-based
# [17] = biological target: Transient receptor potential cation channel subfamily M member 7 (Mus musculus) (UniProt Q923J1); assay: Inhibition of TRPM7 in mouse mouse primary cortical neurons exposed to 1 hrs oxygen glucose deprivation condition assessed as reduction in TRPM7-mediated anoxic cell death at 1.25 to 10 uM measured after 20 hrs by propidium iodide uptake assay; format: cell-based; conditions: Cerebral cortex neuron
# [18] = biological target: Transient receptor potential cation channel subfamily A member 1 (Homo sapiens) (UniProt O75762); assay: Inhibition of TRPA1 ((unknown origin) expressed in HEK293 cells assessed as effect on agonist-induced Ca2+ changes; format: functional, cell-based
# [19] = biological target: Transient receptor potential cation channel subfamily M member 2 (Homo sapiens) (UniProt O94759); assay: Inhibition of TRPM2 (unknown origin) expressed in HEK293 cells assessed as effect on agonist-induced Ca2+ changes; format: functional, cell-based
# [20] = biological target: Glutamate NMDA receptor (Mus musculus) (UniProt P35436+Q91ZU9+Q03391+P35438+Q01097+Q01098+A2AIR5); assay: Inhibition of NMDA receptor in mouse cortical neurons assessed as effect on NMDA currents; format: protein-complex assay
# [21] = test system: Rattus norvegicus; assay: Analgesic activity in iv dosed rat model of formalin-induced inflammatory pain assessed reduction in formalin-induced phase-1 pain flinches; format: functional, organism-based
# [22] = biological target: Transient receptor potential cation channel subfamily M member 7 (Rattus norvegicus) (UniProt Q925B3); assay: Inhibition of TRPM7 in rat H9C2 cells exposed to oxygen glucose deprivation condition for 1 to 6 hrs assessed as reduction in TRPM7-mediated anoxic cell death in presence of 1 uM nifedipine by propidium iodide uptake assay; format: cell-based
# [23] = biological target: Transient receptor potential cation channel subfamily M member 7 (Rattus norvegicus) (UniProt Q925B3); assay: Inhibition of TRPM7 in rat H9c2 cells assessed as protection against oxygen glucose deprivation-induced cell death at 0.05 to 5 uM in presence of 1 uM nifedipine; format: cell-based
# [24] = biological target: Transient receptor potential cation channel subfamily M member 7 (Mus musculus) (UniProt Q923J1); assay: Inhibition of TRPM7 in mouse mouse primary cortical neurons exposed to 2 hrs oxygen glucose deprivation condition assessed as reduction in TRPM7-mediated anoxic cell death measured after 20 hrs by propidium iodide uptake assay; format: cell-based; conditions: Cerebral cortex neuron
# [25] = biological target: Transient receptor potential cation channel subfamily M member 4 (Homo sapiens) (UniProt Q8TD43); assay: Inhibition of TRPM4 (unknown origin) expressed in HEK293 cells assessed as effect on agonist-induced Ca2+ changes; format: functional, cell-based
# Chain of Transient receptor potential cation channel subfamily M member 4 (Homo sapiens) (Q8TD43 whole entry): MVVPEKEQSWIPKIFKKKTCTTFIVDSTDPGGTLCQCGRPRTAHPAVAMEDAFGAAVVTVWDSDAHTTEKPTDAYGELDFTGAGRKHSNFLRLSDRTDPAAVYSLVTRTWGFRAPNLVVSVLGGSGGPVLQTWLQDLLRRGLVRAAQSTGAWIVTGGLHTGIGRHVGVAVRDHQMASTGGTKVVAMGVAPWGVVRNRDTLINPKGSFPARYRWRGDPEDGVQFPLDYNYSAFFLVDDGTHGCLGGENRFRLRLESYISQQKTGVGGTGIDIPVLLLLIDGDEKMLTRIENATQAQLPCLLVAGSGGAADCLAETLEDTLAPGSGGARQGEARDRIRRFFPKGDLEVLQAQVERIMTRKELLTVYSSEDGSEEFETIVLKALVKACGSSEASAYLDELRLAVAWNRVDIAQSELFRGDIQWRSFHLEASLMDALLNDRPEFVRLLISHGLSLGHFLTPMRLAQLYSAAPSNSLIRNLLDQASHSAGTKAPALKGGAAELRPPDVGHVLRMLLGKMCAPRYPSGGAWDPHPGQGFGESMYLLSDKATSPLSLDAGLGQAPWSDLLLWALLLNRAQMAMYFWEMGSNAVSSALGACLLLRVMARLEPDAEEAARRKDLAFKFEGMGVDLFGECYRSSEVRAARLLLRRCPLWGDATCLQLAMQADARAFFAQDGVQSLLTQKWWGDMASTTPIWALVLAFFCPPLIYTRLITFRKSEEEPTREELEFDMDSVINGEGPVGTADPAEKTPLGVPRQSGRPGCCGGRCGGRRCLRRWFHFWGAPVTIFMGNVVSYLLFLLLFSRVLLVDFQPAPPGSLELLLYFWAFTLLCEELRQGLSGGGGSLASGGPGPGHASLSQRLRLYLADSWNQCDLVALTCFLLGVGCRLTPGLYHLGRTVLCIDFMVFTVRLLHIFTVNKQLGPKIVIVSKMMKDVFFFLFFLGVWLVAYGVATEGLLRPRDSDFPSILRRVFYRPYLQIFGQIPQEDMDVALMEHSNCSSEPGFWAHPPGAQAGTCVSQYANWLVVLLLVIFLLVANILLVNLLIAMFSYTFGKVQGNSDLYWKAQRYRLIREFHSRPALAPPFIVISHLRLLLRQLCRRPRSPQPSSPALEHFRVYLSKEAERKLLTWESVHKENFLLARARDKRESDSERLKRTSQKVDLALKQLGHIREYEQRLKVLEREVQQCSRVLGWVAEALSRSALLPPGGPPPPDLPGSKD
# [26] = test system: Mus musculus; assay: Reduction in infarct volume in mouse model of permanent LAD coronary artery ligation at 10 to 335 ug/kg, iv administered as single dose within 15 mins of LAD occlusion by TTC staining based method; format: functional, organism-based
# [27] = test system: Mus musculus; assay: Toxicity in mouse up to 150 uM, iv; format: organism-based; conditions: in vivo
# [28] = species on record: Mus musculus; assay: Inhibition of potassium channel in mouse cortical neurons assessed as reduction in potassium currents at -10mV membrane potential
# [29] = biological target: Transient receptor potential cation channel subfamily M member 7 (Mus musculus) (UniProt Q923J1); assay: Inhibition of TRPM7 in mouse primary neuronal cells exposed to oxygen glucose deprivation condition for 1 to 3 hrs assessed as reduction in TRPM7-mediated anoxic cell death dosed after oxygen glucose deprivation condition by propidium iodide uptake assay; conditions: Primary neuron
# [30] = biological target: Transient receptor potential cation channel subfamily M member 7 (Mus musculus) (UniProt Q923J1); assay: Inhibition of Tet-induced Flag-tagged mouse TRPM7 expressed in HEK293 cells assessed as inhibition of channel-mediated cell death in presence of Mg2+ incubated for 24 to 48 hrs by propidium iodide uptake assay; format: cell-based; set-up: concentration or dose not given beside the values
# [31] = test system: Mus musculus; assay: Reduction in dead cells following LAD restriction of heart in mouse model of permanent LAD coronary artery ligation at 10 to 100 ug/kg, iv administered as single dose within 15 mins of LAD occlusion by TUNEL assay; format: functional, organism-based
# [32] = test system: Rattus norvegicus; assay: Analgesic activity in iv dosed rat model of formalin-induced inflammatory pain assessed reduction in formalin-induced phase-2 pain flinches; format: functional, organism-based
# [33] = species on record: Mus musculus; assay: Inhibition of sodium channel in mouse cortical neurons assessed as effect on Na+ currents
# [34] = biological target: Transient receptor potential cation channel subfamily M member 7 (Mus musculus) (UniProt Q923J1); assay: Inhibition of Tet-induced Flag-tagged mouse TRPM7 expressed in HEK293 cells assessed as reduction in channel currents at 2 mM using compound applied intracellularly by whole cell patch clamp assay; format: cell-based
# [35] = species on record: Mus musculus; assay: Inhibition of calcium channel in mouse cortical neurons assessed as effect on Ca2+ currents; format: functional
# [36] = biological target: Transient receptor potential cation channel subfamily M member 6 (Homo sapiens) (UniProt Q9BX84); assay: Inhibition of TRPM6 (unknown origin) expressed in HEK293 cells assessed as effect on agonist-induced Ca2+ changes; format: functional, cell-based
# [37] = biological target: Transient receptor potential cation channel subfamily M member 7 (Rattus norvegicus) (UniProt Q925B3); assay: Inhibition of TRPM7 in Sprague-Dawley rat retinal explants subjected to 1 hr oxygen-glucose deprivation assessed as reduction in retinal ischemia at 5 uM
# [38] = biological target: Transient receptor potential cation channel subfamily M member 7 (Rattus norvegicus) (UniProt Q925B3); assay: Inhibition of TRPM7 in rat H9c2 cells assessed as protection against oxygen glucose deprivation-induced cell death at 0.05 to 5 uM pre-treated for 24 hrs before OGD in presence of 1 uM nifedipine; format: cell-based
# [39] = biological target: Transient receptor potential cation channel subfamily M member 7 (Mus musculus) (UniProt Q923J1); assay: Inhibition of Tet-induced Flag-tagged mouse TRPM7 expressed in HEK293 cells assessed as reduction in channel currents at 2 mM using compound applied extracellularly by whole cell patch clamp assay; format: cell-based
# [40] = biological target: Transient receptor potential cation channel subfamily V member 1 (Homo sapiens) (UniProt Q8NER1); assay: Inhibition of TRPV1 (unknown origin) expressed in HEK293 cells assessed as effect on agonist-induced Ca2+ changes; format: functional, cell-based
structure (smiles),measurement,setting,value
Cc1c(Cc2ccc(Cl)c(Cl)c2)c(=O)oc2cc(O)ccc12,inhibition,[1],Active
same,inhibition at 10 µM,[2],> 20%
same,inhibition,[3],Active
same,inhibition,[4],Active
same,inhibition,[5],Active
same,inhibition,[6],inactive
same,Activity,[7],66%
same,inhibition,[8],Active
same,inhibition,[9],inactive
same,Activity,[10],Active
same,inhibition,[11],Active
same,inhibition,[12],Active
same,inhibition,[13],Active
same,inhibition,[14],Active
same,Activity,[15],Active
same,inhibition,[16],Active
same,inhibition,[17],Active
same,inhibition,[18],inactive
same,inhibition,[19],inactive
same,inhibition,[20],inactive
same,Activity,[21],inactive
same,inhibition,[22],Active
same,inhibition,[23],Active
same,inhibition,[24],Active
same,inhibition,[25],inactive
same,Activity,[26],Active
same,Activity,[27],Non-toxic
same,inhibition,[28],20%
same,inhibition,[29],Active
same,inhibition,[30],Active
same,Activity,[31],Active
same,Activity,[32],Active
same,inhibition,[33],inactive
same,inhibition,[34],inactive
same,inhibition,[35],inactive
same,inhibition,[36],inactive
same,inhibition,[37],Active
same,inhibition,[38],Active
same,inhibition,[39],Active
same,inhibition,[40],inactive
